Measured values: patent US8318455B2, “Inducible/regulated gene expression system in E coli” (priority 2007, dated 2012)
Where two headings read alike, the source gives them in different places.

Tests used:
[1] = system: GFP expression in E. coli BL21(DE3)pLysS; assay type: cell-based, Escherichia coli; conditions: for GFP yield / course of induced GFP expression (time of maximum): 100 μm inducer; for state of the induced culture (lysis, foaming): fermenter culture, after 8 hours post induction; for specific yield of GFP / total yield of GFP: defined medium A; for course of induced GFP expression (time of maximum): post induction, FIG. 10A
Procedure: Benchtop Fermentations. Batch fermentation experiments were carried out in a 14-I bioreactor (BioFlo 110, New Brunswick Scientific, Edison, N.J. USA) to compare GFP production yield between T7 expression system and cumate system. For the batch culture, pre-cultures were used to inoculate the bioreactor filled with 5 l of medium A (Yoon et al, 2003) and initial O.D. was adjusted to 0.1 for both expression systems. The cultures induced with IPTG for T7 system and cumate for cumate system when O.D. reached at 38 to 42. For cultures carried out in bioreactors, pH and dissolved oxygen were controlled at 7 and 25%, respectively.
(§1) Detection of gene expression. Detection of GFP was carried out by fluorescence microscopy, and quantified by using a SPECTRAFluor Plus (TECAN Austria Gmbh, Grodïg, Austria) under excitation and emission wavelengths of 485 and 508 nm, respectively. Concentration of GFP was calculated based on a linear relationship between concentration and fluorescence units determined using solutions of purified GFP (Qbiogene). The biomass (X) was determined by cell dry weight measurement of the samples (Moisture Analyzer MA 30, Sartorius).
All results obtained were in defined medium A. The value ‘x’ is dry weight in g/L.
All results obtained were in defined medium A.

[2] = system: GFP expression in host cells; assay: Plate assay: GFP expression, T7 system vs cumate system; assay type: cell-based, Escherichia coli; conditions: plates with IPTG (1 mM) or cumate (0.12 mM); FIG. 4
Procedure: Host cell transformation and gene expression. pNEW vectors harbouring different genes of interest were transformed into various E. coli cells by chemical or electroporation methods (Sambrook and Russell, 2000). The transformed cells were grown at 37° C. in LB medium, and expression of genes under developed system was induced with 20 μg/ml cumate or as indicated.
as §1
FIG. 4 depicts a comparison between T7 system and cumate system for GFP expression in plates containing IPTG (1 mM) and cumate (0.12 mM) as inducer, respectively.

[3] = 45 minutes post induction, FIG. 9C
[4] = 2 hours post induction, FIG. 9E
[5] = 3 hours post induction, FIG. 9F
[6] = inducer 100 μM, induction time 1 h
[7] = inducer 100 μM, induction time 2 h
[8] = inducer 100 μM, induction time 4 h
[9] = inducer 100 μM, induction time 5 h
[10] = inducer 100 μM, induction time 6 h
[11] = inducer 100 μM, induction time 7 h
[12] = inducer 100 μM, induction time 8 h
[13] = inducer 100 μM, induction time 9 h
[14] = inducer 1000 μM, induction time 1 h
[15] = inducer 1000 μM, induction time 2 h
[16] = inducer 1000 μM, induction time 4 h
[17] = inducer 1000 μM, induction time 5 h
[18] = inducer 1000 μM, induction time 6 h
[19] = inducer 1000 μM, induction time 7 h
[20] = inducer 1000 μM, induction time 8 h
[21] = inducer 1000 μM, induction time 9 h

Compound	GFP yield [1, 3] [mg/g]	GFP yield ([1]; 1 hour post induction, FIG. 9D) [mg/g]	GFP yield [1, 4] [mg/g]	GFP yield [1, 5] [mg/g]	state of the induced culture (lysis, foaming) [1]	specific yield of GFP [1, 6] [mg/g x]	total yield of GFP [1, 6] [mg/L]	specific yield of GFP [1, 7] [mg/g x]	total yield of GFP [1, 7] [mg/L]	specific yield of GFP [1, 8] [mg/g x]	total yield of GFP [1, 8] [mg/L]	specific yield of GFP [1, 9] [mg/g x]	total yield of GFP [1, 9] [mg/L]	specific yield of GFP [1, 10] [mg/g x]	total yield of GFP [1, 10] [mg/L]	specific yield of GFP [1, 11] [mg/g x]	total yield of GFP [1, 11] [mg/L]	specific yield of GFP [1, 12] [mg/g x]	total yield of GFP [1, 12] [mg/L]	specific yield of GFP [1, 13] [mg/g x]	also measured
CC(C)c1ccc(C(=O)O)cc1 [Cumate, p-cumate]	30	38	84	123	no lysis occurred	38	602	84	644	123	3002	164	4719	176	5443	165	6194	193	6977	222	cumate induced GFP yield relative to IPTG induced culture ([1]; cultures induced with 1000 μM IPTG or cumate): more than double; total yield of GFP [1, 13]: 7838 mg/L; specific yield of GFP [1, 14]: 36 mg/g x; total yield of GFP [1, 14]: 486 mg/L; specific yield of GFP [1, 15]: 71 mg/g x; total yield of GFP [1, 15]: 1459 mg/L; specific yield of GFP [1, 16]: 110 mg/g x; total yield of GFP [1, 16]: 2851 mg/L; specific yield of GFP [1, 17]: 141 mg/g x; total yield of GFP [1, 17]: 4593 mg/L; specific yield of GFP [1, 18]: 149 mg/g x; total yield of GFP [1, 18]: 4885 mg/L; specific yield of GFP [1, 19]: 155 mg/g x; total yield of GFP [1, 19]: 5989 mg/L; specific yield of GFP [1, 20]: 249 mg/g x; total yield of GFP [1, 20]: 9666 mg/L; specific yield of GFP [1, 21]: 289 mg/g x; total yield of GFP [1, 21]: 11150 mg/L; course of induced GFP expression (time of maximum) [1]: > 8 h; GFP expression on plates, comparison of systems [2]: dramatically outperforms the IPTG system
CC(C)S[C@@H]1O[C@H](CO)[C@H](O)[C@H](O)[C@H]1O [IPTG, isopropyl-beta-D-thiogalactopyranoside]	27	37	74	90	quickly began to lyse	37	554	74	1300	90	1778	96	2486	85	2035	58	1567	68	1948	67	total yield of GFP [1, 13]: 2090 mg/L; specific yield of GFP [1, 14]: 37 mg/g x; total yield of GFP [1, 14]: 606 mg/L; specific yield of GFP [1, 15]: 60 mg/g x; total yield of GFP [1, 15]: 1191 mg/L; specific yield of GFP [1, 16]: 83 mg/g x; total yield of GFP [1, 16]: 1966 mg/L; specific yield of GFP [1, 17]: 103 mg/g x; total yield of GFP [1, 17]: 2464 mg/L; specific yield of GFP [1, 18]: 118 mg/g x; total yield of GFP [1, 18]: 3340 mg/L; specific yield of GFP [1, 19]: 135 mg/g x; total yield of GFP [1, 19]: 4238 mg/L; specific yield of GFP [1, 20]: 145 mg/g x; total yield of GFP [1, 20]: 4079 mg/L; course of induced GFP expression (time of maximum) [1]: 4 h
